In patent publication US20080207708A1, “Oxazole and Thiazole Compounds and Their Use in the Treatment of Pge2 Mediated Disorders” (GLAXO GROUP LIMITED, priority 2005, published 2008):
Structures can show the parent of a compound that is named as a salt.

Target: T1, EP1 receptors (Homo sapiens, UniProt P34995)
T1 sequence (P34995 1-402): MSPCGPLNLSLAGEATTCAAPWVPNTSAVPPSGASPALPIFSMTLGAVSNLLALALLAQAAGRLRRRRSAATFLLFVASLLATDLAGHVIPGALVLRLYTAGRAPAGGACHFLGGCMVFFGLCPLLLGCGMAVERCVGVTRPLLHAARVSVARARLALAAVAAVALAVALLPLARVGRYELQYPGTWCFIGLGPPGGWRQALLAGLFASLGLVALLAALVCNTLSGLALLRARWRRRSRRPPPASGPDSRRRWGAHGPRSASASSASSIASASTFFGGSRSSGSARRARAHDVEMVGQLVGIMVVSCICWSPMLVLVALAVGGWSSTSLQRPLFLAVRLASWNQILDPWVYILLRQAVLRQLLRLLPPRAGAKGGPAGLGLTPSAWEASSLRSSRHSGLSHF
Assay: Binding assay for the human prostanoid EP1 receptor (competition with [3H]-PGE2)
Parameters: expressed in transfected cells; host or cells: CHO-K1 cells, membrane fraction
Details: [3H]-PGE2 competition; averages of a number of experiments; read-out: pIC50 value, binding assay for the human prostanoid EP1 receptor (converted)
Protocol: Competition assay using [^3H]-PGE2.
Compound potencies are determined using a radioligand binding assay. In this assay compound potencies are determined from their ability to compete with tritiated prostaglandin E2 ([^3H]-PGE2) for binding to the human EP1 receptor.
This assay utilises Chinese hamster ovary-K1 (CHO-K1) cells into which a stable vector containing the EP1 cDNA has previously been transfected. Cells are cultured in suitable flasks containing culture medium such as DMEM:F-12 supplemented with 10% v/v foetal calf serum, 2 mM L-glutamine, 0.25 mg/ml geneticin, 10 μg/ml puromycin and 10 μM indomethacin.
Cells are detached from the culture flasks by incubation in calcium and magnesium free phosphate buffered saline containing 1 mM disodium ethylenediaminetetraacetic acid (Na2EDTA) and 10 μM indomethacin for 5 min. The cells are isolated by centrifugation at 250×g for 5mins and suspended in an ice cold buffer such as 50 mM Tris, 1 mM Na2EDTA, 140 mM NaCl, 10 μM indomethacin (pH 7.4). The cells are homogenised using a Polytron tissue disrupter (2×10 s burst at full setting), centrifuged at 48,000×g for 20mins and the pellet containing the membrane fraction is washed (optional) three times by suspension and centrifugation at 48,000×g for 20mins. The final membrane pellet is suspended in an assay buffer such as 10 mM 2-[N-morpholino]ethanesulphonic acid, 1 mM Na2EDTA, 10 mM MgCl2 (pH 6). Aliquots are frozen at […] until required.
For the binding assay the cell membranes, competing compounds and [^3H]-PGE2 (3 nM final assay concentration) are incubated in a final volume of 100 μl for 30 min at 30° C. All reagents are prepared in assay buffer. Reactions are terminated by rapid vacuum filtration over GF/B filters using a Brandell cell harvester. The filters are washed with ice cold assay buffer, dried and the radioactivity retained on the filters is measured by liquid scintillation counting in Packard TopCount scintillation counter.
The data are analysed using non linear curve fitting techniques to determine the concentration of compound producing 50% inhibition of specific binding (IC50).

| SMILES | IC50 |
| --- | --- |
| O=C(O)c1csc(Cc2cc(C(F)(F)F)ccc2OCc2ccccc2Br)n1 [Example 28, Sodium 2-{[2-{[(2-bromophenyl)methyl]oxy}-5-(trifluoromethyl)phenyl]methyl}-1,3-thiazole-4-carboxylate] | ≤ 1000 nM |
| O=C(O)c1csc(Cc2cc(Cl)ccc2OCc2ccc(F)cc2)n1 [Example 12, 2-[(5-chloro-2-{[(4-fluorophenyl)methyl]oxy}phenyl)methyl]-1,3-thiazole-4-carboxylicacid] | ≤ 31.6 nM |
| O=C(O)c1csc(Cc2cc(C(F)(F)F)ccc2OCc2ccc(F)cc2Cl)n1 [Example 33, Sodium 2-{[2-{[(2-chloro-4-fluorophenyl)methyl]oxy}-5-(trifluoromethyl)phenyl]methyl}-1,3-thiazole-4-carboxylate] | ≤ 31.6 nM |
| O=C(O)c1csc(Cc2cc(C(F)(F)F)ccc2OCc2ccccc2Cl)n1 [Example 30, Sodium 2-{[2-{[(2-chlorophenyl)methyl]oxy}-5-(trifluoromethyl)phenyl]methyl}-1,3-thiazole-4-carboxylate] | ≤ 31.6 nM |
| NC(=O)c1nc(Cc2cc(Cl)ccc2OCc2ccc(F)cc2F)cs1 [Example 1, 4-[(5-chloro-2-{[(2,4-difluorophenyl)methyl]oxy}phenyl)methyl]-1,3-thiazole-2-carboxamide] | ≤ 1000 nM |
| O=C(O)c1csc(Cc2cc(Br)ccc2OCc2ccc(Cl)cc2F)n1 [Example 60, Sodium 2-[(5-bromo-2-{[(4-chloro-2-fluorophenyl)methyl]oxy}phenyl)methyl]-1,3-thiazole-4-carboxylate] | ≤ 31.6 nM |
| O=C(O)c1csc(Cc2cc(C(F)(F)F)ccc2OCC2CC2)n1 [Example 39, Sodium 2-{[2-[(cyclopropylmethyl)oxy]-5-(trifluoromethyl)phenyl]methyl}-1,3-thiazole-4-carboxylate] | ≤ 31.6 nM |
| CCCCCOc1ccc(C(F)(F)F)cc1Cc1nc(C(=O)O)cs1 [Example 40, Sodium 2-{[2-(pentyloxy)-5-(trifluoromethyl)phenyl]methyl}-1,3-thiazole-4-carboxylate] | ≤ 1000 nM |
| NC(=O)c1nc(Cc2cc(Cl)ccc2OCc2ccccc2Cl)cs1 [Example 3, 4-[(5-chloro-2-{[(2-chlorophenyl)methyl]oxy}phenyl)methyl]-1,3-thiazole-2-carboxamide] | ≤ 1000 nM |
| NC(=O)c1nc(Cc2cc(Cl)ccc2OCc2c(F)cc(F)cc2F)cs1 [Example 4, 4-[(5-chloro-2-{[(2,4,6-trifluorophenyl)methyl]oxy}phenyl)methyl]-1,3-thiazole-2-carboxamide] | ≤ 1000 nM |

Other lines, results leading:

| IC50 | SMILES |
| --- | --- |
| ≤ 1000 nM | O=C(O)Cc1csc(-c2cc(Cl)ccc2OCc2ccccc2F)n1 [Example 62, Sodium [2-(5-chloro-2-{[(2-fluorophenyl)methyl]oxy}phenyl)-1,3-thiazol-4-yl]acetate] |
| ≤ 1000 nM | CC(C)COc1ccc(Cl)cc1Cc1nc(-c2nnc[nH]2)cs1 [Example 157, 3-[2-({5-Chloro-2-[(2-methyl-propyl)oxy]-phenyl}methyl)-1,3-thiazol-4-yl]-1H-1,2,4-triazole] |
| ≤ 31.6 nM | Clc1ccc(OCc2ccccc2)c(Cc2nc(-c3nc4ccc(Cl)nc4[nH]3)cs2)c1 [Example 138, 5-Chloro-2-[2-({5-chloro-2-[(phenylmethyl)oxy]phenyl}methyl)-1,3-thiazol-4-yl]-1H-imidazo[4,5-b]pyridinehydrochloride] |
| ≤ 31.6 nM | O=C(O)c1nc(Cc2cc(Cl)ccc2OCc2ccc(F)cc2F)cs1 [Example 74, Sodium 4-[(5-chloro-2-{[(2,4-difluorophenyl)methyl]oxy}phenyl)methyl]-1,3-thiazole-2-carboxylate] |
| ≤ 1000 nM | O=C(O)Cc1csc(-c2cc(Cl)ccc2OCc2c(F)cc(F)cc2F)n1 [Example 64, Sodium [2-(5-chloro-2-{[(2,4,6-trifluorophenyl)methyl]oxy}phenyl)-1,3-thiazol-4-yl]acetate] |
| > 1000 nM | CC(C)(C)OC(=O)Nc1coc(Cc2cc(Cl)ccc2OCc2ccccc2)n1 [Example 161, 1,1-Dimethylethyl [2-({5-chloro-2-[(phenylmethyl)oxy]phenyl}methyl)-1,3-oxazol-4-yl]carbamate] |
